US20070009895A1, “Method of interaction analysis and interaction analyzer” (priority 2003, published 2007)

Biological target: human FKBP12 (Homo sapiens, UniProt P62942)
Conditions: Measurement 3; first solutions of two or three samples, one of them 100 μM FKBP12, others HSA
Description: An apparatus for analyzing interactions in this example includes a column TSK super SW2000 for size exclusion chromatography (column size: 1.0 ID×10 mm, 1.0 ID×30 mm or 1.0 ID×100 mm, manufactured by Tosoh Corporation) for a separation channel 1. The apparatus for analyzing interactions also includes an auto injector HTC-PAL (manufactured by CTC Analytics AG) for a container section 3, and a LC pump (Agilent 1100, manufactured by Yokogawa) for an introduction device 4. The apparatus for analyzing interactions also includes an ion trap mass spectrometer LCQ deca XP (ThermoQuest) for a detection device 5.
The auto injector HTC-PAL (CTC Analytics AG) includes a sample loop of 5 μL or 10 μL, a syringe of 10 μL, and sample trays with a cooling unit. A first solution was introduced by 50 μL into a 2 mL screw vial with a conical insert of 100 μL inserted therein. A screw cap with a septum was put on the vial and the vial was placed in a 54 vial rack and the rack was set in one of the sample trays. A second solution was introduced by 40 μL into each well of a 384 well-microplate, and the microplate was covered with an aluminum seal and set in another sample tray. The sample trays were set at the temperature of 10 degrees C. […]

human FKBP12, sequence (P62942 whole entry): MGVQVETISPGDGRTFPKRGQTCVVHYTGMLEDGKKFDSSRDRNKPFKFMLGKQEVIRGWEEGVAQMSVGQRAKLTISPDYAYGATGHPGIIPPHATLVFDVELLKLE

For `CC[C@@H]1/C=C(\C)C[C@H](C)C[C@H](OC)[C@H]2O[C@@](O)(C(=O)C(=O)N3CCCC[C@H]3C(=O)O[C@H](/C(C)=C/[C@@H]3CC[C@@H](O)[C@H](OC)C3)[C@H](C)[C@@H](O)CC1=O)[C@H](C)C[C@@H]2OC` [Ascomycin], the “interaction with FKBP12 (peaks in mass chromatogram of the compound)” value was “interaction between Ascomycin and FKBP12 is able to be detected”.
